Results: US11129801B2 (SigmaThera SAS, priority 2016, dated 2021)

B1: BDNF: Brain-derived neurotrophic factor, used as a reference compound (protein, UniProt P23560 19-247, looked up)
Neurotrophic factor BDNF …: APMKEANIRGQGGLAYPGVRTHGTLESVNGPKAGSRGLTSLADTFEHVIEELLDEDQKVRPNEENNKDADLYTSRVMLSSQVPLEPPLLFLLEEYKNYLDAANMSMRVRRHSDPARRGELSVCDSISEWVTAADKKTAVDMSGGTVTVLEKVPVSKGQLKQYFYETKCNPMGYTKEGCRGIDKRHWNSQCRTTQSYVRALTMDSKKRIGWRFIRIDTSCVCTLTIKRGR

Test system: rat medium spiny neurons (DARPP32 positive neurons)
Assay: Survival of primary medium spiny neurons injured by glutamate
Type: cell-based
Settings: glutamate 40 μM, 20 min
Method: Rat MSN of striatum were cultured as described (Ivkovic S, et al, (1999) The Journal of neuroscience: the official journal of the Society for Neuroscience 19(13): 5409-5419).
Briefly pregnant female rats of 15 days gestation were killed by cervical dislocation (Rats Wistar; Janvier) and the foetuses removed from the uterus. The embryonic midbrains were removed and placed in ice-cold medium of Leibovitz 15 (L15; PanBiotech, Ref P04-27055, Batch: 8810315) containing 2% of Penicillin-Streptomycin (PS; PanBiotech, ref: P06-07100, Batch: 7511015) and 1% of bovine serum albumin (BSA; PanBiotech, Ref: P06-1391100, Batch: H140904). Only the ventral portions of the mesencephalic flexure were used for the cell preparations as this region of the developing brain is rich in dopaminergic neurons. The midbrains were dissociated by trypsinisation for 20 minutes (min) at 37° C. (Trypsin EDTA 1×; PanBiotech, Ref: P10-023100, batch: 1670415). The reaction was stopped by the addition of Dulbecco's modified Eagle's medium (DMEM; PanBiotech, Ref: P04-03600, Batch: 9021115) containing DNase I grade II (0.1 mg/ml; PanBiotech, Ref: P60-37780100, Batch: H140508) and 10% of fetal calf serum (FCS; Invitrogen, Ref: 10270-098, Batch: 41G8542K). Cells were then mechanically dissociated by 3 passages through a 10 ml pipet. Cells were then centrifuged at 180×g for 10 min at 4° C. on a layer of BSA (3.5%) in L15 medium. The supernatant was discarded and the cell pellets were re-suspended in a defined culture medium consisting of Neurobasal (Invitrogen, Ref: 21103, Batch: 1754639) supplemented with B27 (2%; Invitrogen, ref: 17504, batch: 1799273), L-glutamine (2 mM; PanBiotech, Ref: P04-80100, Batch: 6620314) and 2% of PS. Viable cells were counted in a Neubauer cytometer using the trypan blue exclusion test. The cells were seeded at a density of 70000 cells/well in 96 well-plates (pre-coated with poly-D-lysine; Greiner, Ref: E150033VJ) and were cultured at 37° C. in a humidified air (95%)/CO2 (5%) atmosphere. Half of the medium was changed every 2 days with fresh medium. […]

Molecule | DARPP32 positive neurons (0.3 μM) | DARPP32 positive neurons (1 μM) | DARPP32 positive neurons (10 ng/mL)
CCC(C/C=C/c1ccccc1)(c1ccccc1)N(C)CC1CC1 (single isomer, unassigned; (+)) [igmesine, (+)-(E)-N-(cyclopropylmethyl)-N-methyl-3,6-diphenylhex-5-en-3-amine] | 89.28 % of the control | 81.60 % of the control | –
B1 | – | – | 90.14 % of the control
